The values below come from US20190231751A1, “TREATMENT OF FIBROTIC DISORDERS WITH JUN N-TERMINAL KINASE INHIBITORS” (Imago Pharmaceuticals, Inc., priority 2016, published 2019).

Data set [1] can be described thus: Rat PK/PD study: plasma compound levels by LC/MS. The class given is in vivo. Conditions: female Wistar rats; kainic acid 60 minutes after compound; blood 4 hours post kainic acid. As for the experimental part: Plasma compound levels for two of the JNK inhibitors, IGP001 (Formula (XXI)) and IGP002 (Formula (XXII)), were obtained using a rat model for pharmaceutical administration of the compounds. Female Wistar rats, 7-9 weeks old, were obtained (SLAC Laboratory Animal Co. Ltd., Shanghai, China), and three groups of animals (n=3 each) received 1) kainic acid and 2) either IGP001 in vehicle, IGP002 in vehicle, or vehicle alone. The animals received the kainic acid 60 minutes after they received the IGP001 in vehicle, IGP002 in vehicle, and or vehicle alone.
For administration, the kainic acid was dissolved in saline, and introduced to the rats using the protocol as generally disclosed in Tse K, Puttachary S, Beamer E, Sills G J, Thippeswamy T (2014) PLoS One 9:e96622. Animals in each group were surgically implanted with catheters in carotid artery using polyurethane tubing and heparin (50 IU/mL)/glucose (50%) solutions as the lumen lock solution. Anaesthetic barbital was used during the surgery. The animals were allowed to recover seven days after surgery.
The animals were euthanized 4 hours post kainic acid administration using CO2 inhalation and blood was collected via cardiac puncture. 5 mL blood was transferred into pre-labled plastic microcentrifuge tubes containing K2-EDTA (0.5M) as anti-coagulant. Plasma levels were determined by a validated LC/MS analysis.

The subject of data set [2] is myocardial ischemia-reperfusion. Description: Rat model of cardiac ischemia and remodeling. It is filed as in vivo. As for the experimental part:
To study the effects of JNK inhibitors on prevention and/or progression of cardiac infarct size following myocardial infarction, a rat model of cardiac ischemia and remodeling was used. Briefly, adult male Sprague-Dawley rats (Charles River labs) are subjected to 45 minutes normothermic ischemia (left coronary artery occlusion) followed by 48 hours reperfusion. In rodents, myocardial infarct size stabilizes by 48 hour post-ischemia following which events relating to left ventricular (LV) dilatation and remodeling begin. At the onset of reperfusion, animals receive vehicle, IGP001 or IGP002 (10 mg/kg/day) p.o. Infarct size as a percentage of region-at-risk (RAR) is determined using standard Evans Blue and tetrazolium chloride staining of the hearts. Rats are next tested for ischemic ventricular remodeling and cardiac function following treatment with IGP001 and IGP002. Rats subjected to 45 minutes normothermic myocardial ischemia receive vehicle, IGP001 or IGP002 p.o. (10 mg/kg/day, p.o.; twice/day for remainder of study) at onset of reperfusion. Following a 48 hour treatment period, animals are subjected to echocardiography (Philips Envisor C Ultrasound) at week 1 reperfusion and sacrificed at week 8 reperfusion. Myocardial ischemia-reperfusion is associated with the hall mark indices of LV remodeling: increased end-diastolic volume or LV dilatation; increased end-systolic volume (i.e. reduced cardiac output); reduced fractional shortening and ejection fraction. […] To better mimic the clinical scenario of delayed start of treatment, rats are administered with vehicle, IGP001 or IGP002 (10 mg/kg/day) p.o. 3 hours after the onset of reperfusion following a 45 minute myocardial ischemia. Animals are sacrificed at 48 hours reperfusion.

Data set [3] deals with JNK. Description: TGF-β1-induced JNK activation in human lung fibroblasts (Western blot). To be noted: HFL-1 cells; compound 30 minutes, then TGF-β1 1 ng/ml 30 minutes. The class given is cell-based. As for the experimental part: (§1) IGP001 and IGP002 are shown to affect TGF-β1-induced MAP kinase activities in human lung fibroblasts. Human fetal lung fibroblasts (HFL-1) (ATCC, Rockville, Md.) are cultured in Ham's F12K medium (American Type Culture Collection) supplemented with 50 U/ml penicillin G sodium, 50 μg/ml streptonycin sulfate (GIBCO BRL, Life Technologies, Inc., Rockville, Md.) and 10% fetal bovine serum (FBS; Equitech-Bio. Inc., Ingram, Tex.) and maintained in humidified 5% CO2 at 37° C. After reaching confluence, the serum content of the medium is reduced to 0.4% FBS for 24 h. The cells are then stimulated with 1 ng/ml TGF-β1 to produce CTGF.
To test the ability of IGP001 and IGP002 to suppress activation of JNK, HFL-1 cells are cultured with 0.1% DMSO (control vehicle), IGP001 or IGP002 at a concentration of […] for 30 minutes, followed by stimulation with TGF-β1 (1 ng/ml) for 30 minutes. Activities of JNK, p38 MAP kinase and ERK are determined by Western blotting whole cell lysates using antibodies specific for phosphorylated, activated forms of JNK, p38 MAP kinase, and ERK. […]
Phosphorylated JNK protein levels are quantified by densitometry. The optical density of the p46 and p54 phosphorylated protein band are corrected for total p46 and p54 protein, respectively, and results are expressed as ratio (%) of control value (TGF-β1-stimulated HFL-1 cells).

The subject of data set [4] is ERK. Put plainly: TGF-β1-induced ERK activation in human lung fibroblasts (Western blot). To be noted: HFL-1 cells; TGF-β1 1 ng/ml. It is filed as cell-based. How it is done: as §1
To test the ability of IGP001 and IGP002 to suppress activation of JNK, HFL-1 cells are cultured with 0.1% DMSO (control vehicle), IGP001 or IGP002 at a concentration of […] for 30 minutes, followed by stimulation with TGF-β1 (1 ng/ml) for 30 minutes. Activities of JNK, p38 MAP kinase and ERK are determined by Western blotting whole cell lysates using antibodies specific for phosphorylated, activated forms of JNK, p38 MAP kinase, and ERK. Two identical experiments independently performed yielded similar results.
(In general: Immunoblotting shows a protein as a band on a membrane.)

The subject of data set [5] is bleomycin-induced lung fibrosis. Description: Mouse bleomycin-induced lung fibrosis model, preventative study. It is filed as in vivo. To be noted: 10 mg/kg and 30 mg/kg b.i.d. oral gavage starting prior to bleomycin; 14 days. As for the experimental part:
Age and gender-matched wild type mice on the C57BL/6 background were utilized for this study, which is outlined in Table 1: Mice are housed in a sterile barrier facility at the Yale University School of Medicine and all proposed procedures are approved on existing mouse protocols. Mice were given a single inhaled dose of 1.25 Units/kg pharmacologic grade bleomycin (Teva Pharmaceuticals, Israel) in a volume of 50 μl. Mice received twice daily administered IGP001, via oral gavage, on a b.i.d. schedule starting prior to bleomycin treatment in this preventative study. Mice were sacrificed at 14 days following the administration of bleomycin and assessed as appropriate for the outcomes shown in Table 2: Briefly, lung inflammation was assessed by Bronchoalveolar lavage cell counts. Total soluble lung collagen will be quantified using Sircol Assay (Biocolour, Ireland). Formalin fixed, paraffin embedded mouse lung sections were stained with hematoxylin and eosin to assess gross morphology, morphometry, and Ashcroft scores and with Masson's trichrome stains to visualize collagen deposition.

[6] abbreviates: 10 mg/kg/day p.o. for 48 hours following myocardial ischemia, week 1.

Molecules are shown by their SMILES.

Consider `O=C(Cn1c(=O)ccc2cc(C(F)(F)F)ccc21)Nc1scc(Br)c1-c1nnc[nH]1` [IGP001, N-(4-bromo-3-(1H-1,2,4-triazol-5-yl)thiophen-2-yl)-2-(2-oxo-6-(trifluoromethyl)quinolin-1(2H)-yl)acetamide], for which the “plasma compound levels versus cellular EC50” value in data set [1] is “sufficient compound in the plasma of treated animals to exceed cellular EC50 in the periphery”. Moreover, the “size of infarction, delayed start of treatment” value in data set [2] (10 mg/kg/day p.o. 3 hours after the onset of reperfusion, 48 hours reperfusion) is on record as “statistically significant decrease in the size of infarction”. In addition, the “postischemic myocardial infarct size” value in data set [2] (10 mg/kg/day p.o. at the onset of reperfusion, 48 hours reperfusion) is “significant reduction in postischemic myocardial infarct size”. In data set [2] (setting [6]), the “LV remodeling (echocardiography)” value is listed as “reduces adverse LV remodeling” and the “cardiac function (echocardiography)” value is listed as “improved cardiac function”. Also, the “TGF-β1-induced JNK phosphorylation” value in data set [3] is “suppress TGF-β1-induced JNK phosphorylation in a dose-dependent fashion”. The “TGF-β1-induced ERK activation” value in data set [4] was “but not p38 MAP Kinase or ERK Activation”. Moreover, the “deposited collagen (Masson's trichrome stain)” value in data set [5] is on record as “reduced deposited collagen”.
